Data as given in patent US20230049952A1, “METHODS AND COMPOUNDS FOR RESTORING MUTANT P53 FUNCTION” (PMV Pharmaceuticals, Inc., priority 2020, published 2023).

Tested on: p53 signaling pathway in MT373 tumors
Test: MT373 syngeneic sarcoma model: mouse p53 signaling pathway profiling panel
Format: in vivo

## CCn1c(C#CCNc2ccccc2)cc2cc(CNC3CCN(C)CC3)ccc21 [Compound 1, 1-Anilino-3-{1-ethyl-5-[(1-methyl-4-piperidylamino)methyl]-1H-indol-2-yl}-2-propyne]
75 mg/kg BIDx1, 8 h
  Apex1 fold increase or percent reduction vs vehicle control: 19.97 fold or %
  Atm fold increase or percent reduction vs vehicle control: 13.42 fold or %
  Atr fold increase or percent reduction vs vehicle control: 8.05 fold or %
  Bag1 fold increase or percent reduction vs vehicle control: 24.87 fold or %
  Bax fold increase or percent reduction vs vehicle control: 1.97 fold or %
  Bbc3 fold increase or percent reduction vs vehicle control: 2.97 fold or %
  Bcl2 fold increase or percent reduction vs vehicle control: 7.84 fold or %
  Bid fold increase or percent reduction vs vehicle control: 1.19 fold or %
  Birc5 fold increase or percent reduction vs vehicle control: 15.16 fold or %
  Brca1 fold increase or percent reduction vs vehicle control: 3.14 fold or %
  Brca2 fold increase or percent reduction vs vehicle control: 5.75 fold or %
  Btg2 fold increase or percent reduction vs vehicle control: 14.84 fold or %
  Casp2 fold increase or percent reduction vs vehicle control: 17.74 fold or %
  Ccnb1 fold increase or percent reduction vs vehicle control: 4.81 fold or %
  Ccne1 fold increase or percent reduction vs vehicle control: 12.14 fold or %
  Ccng1 fold increase or percent reduction vs vehicle control: 6.19 fold or %
  Ccnh fold increase or percent reduction vs vehicle control: 15.28 fold or %
  Cdc25a fold increase or percent reduction vs vehicle control: 15.20 fold or %
  Cdk1 fold increase or percent reduction vs vehicle control: 32.00 fold or %
  Cdk4 fold increase or percent reduction vs vehicle control: 37.50 fold or %
  Cdkn1a fold increase or percent reduction vs vehicle control: 7.14 fold or %
  Cdkn2a fold increase or percent reduction vs vehicle control: 31.09 fold or %
  Chek1 fold increase or percent reduction vs vehicle control: 19.58 fold or %
  Cradd fold increase or percent reduction vs vehicle control: 21.01 fold or %
  Cul9 fold increase or percent reduction vs vehicle control: 1.73 fold or %
  Dapk1 fold increase or percent reduction vs vehicle control: 1.37 fold or %
  Dnmt1 fold increase or percent reduction vs vehicle control: 1.16 fold or %
  E2f1 fold increase or percent reduction vs vehicle control: 1.05 fold or %
  E2f3 fold increase or percent reduction vs vehicle control: 21.77 fold or %
  Egfr fold increase or percent reduction vs vehicle control: 42.31 fold or %
  Egr1 fold increase or percent reduction vs vehicle control: 59.72 fold or %
  Ep300 fold increase or percent reduction vs vehicle control: 15.26 fold or %
  Ercc1 fold increase or percent reduction vs vehicle control: 20.74 fold or %
  Esr1 fold increase or percent reduction vs vehicle control: 1.22 fold or %
  Fadd fold increase or percent reduction vs vehicle control: 2.66 fold or %
  Fas fold increase or percent reduction vs vehicle control: 1.75 fold or %
  Fasl fold increase or percent reduction vs vehicle control: 1.24 fold or %
  Foxo3 fold increase or percent reduction vs vehicle control: 1.04 fold or %
  Gadd45a fold increase or percent reduction vs vehicle control: 25.34 fold or %
  Hif1a fold increase or percent reduction vs vehicle control: 1.26 fold or %
  Il6 fold increase or percent reduction vs vehicle control: 68.47 fold or %
  Jun fold increase or percent reduction vs vehicle control: 22.75 fold or %
  Kras fold increase or percent reduction vs vehicle control: 1.03 fold or %
  Lig4 fold increase or percent reduction vs vehicle control: 1.13 fold or %
  Mdm2 fold increase or percent reduction vs vehicle control: 5.35 fold or %
  Mdm4 fold increase or percent reduction vs vehicle control: 1.03 fold or %
  Mel1 fold increase or percent reduction vs vehicle control: 24.40 fold or %
  Mlh1 fold increase or percent reduction vs vehicle control: 12.48 fold or %
  Msh2 fold increase or percent reduction vs vehicle control: 31.49 fold or %
  Myod1 fold increase or percent reduction vs vehicle control: 4.56 fold or %
  Nf1 fold increase or percent reduction vs vehicle control: 31.85 fold or %
  Nfkb1 fold increase or percent reduction vs vehicle control: 11.36 fold or %
  Pcna fold increase or percent reduction vs vehicle control: 32.47 fold or %
  Pmaip1 fold increase or percent reduction vs vehicle control: 1.60 fold or %
  Ppm1d fold increase or percent reduction vs vehicle control: 1.48 fold or %
  Prc1 fold increase or percent reduction vs vehicle control: 1.28 fold or %
  Prkca fold increase or percent reduction vs vehicle control: 5.77 fold or %
  Pten fold increase or percent reduction vs vehicle control: 0.35 fold or %
  Pttg1 fold increase or percent reduction vs vehicle control: 1.04 fold or %
  Rb1 fold increase or percent reduction vs vehicle control: 16.87 fold or %
  Rela fold increase or percent reduction vs vehicle control: 1.12 fold or %
  Rprm fold increase or percent reduction vs vehicle control: 3.08 fold or %
  Serpinb5 fold increase or percent reduction vs vehicle control: 3.96 fold or %
  Sesn2 fold increase or percent reduction vs vehicle control: 3.24 fold or %
  Sfn fold increase or percent reduction vs vehicle control: 1.12 fold or %
  Sirt1 fold increase or percent reduction vs vehicle control: 1.09 fold or %
  Stat1 fold increase or percent reduction vs vehicle control: 1.35 fold or %
  Tnf fold increase or percent reduction vs vehicle control: 1.85 fold or %
  Traf1 fold increase or percent reduction vs vehicle control: 1.23 fold or %
  Trp53bp2 fold increase or percent reduction vs vehicle control: 12.87 fold or %
  Trp53 fold increase or percent reduction vs vehicle control: 1.13 fold or %
75 mg/kg BIDx1, 24 h
  Apex1 fold increase or percent reduction vs vehicle control: 30.49 fold or %
  Atm fold increase or percent reduction vs vehicle control: 23.68 fold or %
  Atr fold increase or percent reduction vs vehicle control: 10.08 fold or %
  Bag1 fold increase or percent reduction vs vehicle control: 25.05 fold or %
  Bax fold increase or percent reduction vs vehicle control: 1.60 fold or %
  Bbc3 fold increase or percent reduction vs vehicle control: 1.80 fold or %
  Bcl2 fold increase or percent reduction vs vehicle control: 30.58 fold or %
  Bid fold increase or percent reduction vs vehicle control: 1.04 fold or %
  Birc5 fold increase or percent reduction vs vehicle control: 45.92 fold or %
  Brca1 fold increase or percent reduction vs vehicle control: 42.43 fold or %
  Brca2 fold increase or percent reduction vs vehicle control: 36.40 fold or %
  Btg2 fold increase or percent reduction vs vehicle control: 31.06 fold or %
